# From patent US20250129101A1, “Compound, Pharmaceutical Composition Comprising the Same and Method for Treating Cancer Using the Same” (NATIONAL TSING HUA UNIVERSITY, priority 2023, published 2025)
# Like-named read-outs stand apart in the source and are kept apart here.
# Experiments:
# [1] = system: 4T1 S1 cells; experiment: Cell viability assay, 4T1 S1 cells; assay type: cell-based; details: Mus musculus, 72 hr, read-out: IC50, single treatment
# Experimental: (§1) MCF-7, MDA-MB-231, MDA-MB-468, Hs578T, 4T1, and HeLa cell lines stably expressing H2B-mCherry and eGFP-tubulin (kindly provided by Dr. Anthony A. Hyman, Max-Planck-Institute for Molecular Cell Biology and Genetics, Dresden, Germany) were cultured in high-glucose Dulbecco's Modified Eagle Medium (DMEM). SK-BR-3 cells were cultured in McCoy's Modified 5a Medium. Hs578T cells were cultured in high-glucose DMEM supplemented with an additional 0.01 mg/mL bovine insulin. […] All mentioned media were supplemented with 10% fetal bovine serum (Gibco) and 1% Penicillin/Streptomycin (Corning), and cells were incubated at 37° C. in a humidified atmosphere containing 5% CO2. HEK293 cells were cultured in HE300 medium (GMEP incorporated, Japan) and maintained in suspension culture with 125 rpm and 8% CO2.
# (§2) The cancer cells were cultured in a 96-well plate at a confluence of 1000-2000 cells/well with indicated drugs for specific days. When the time was up, the culture medium in the plate was aspirated and replaced with a prepared CellTiter-Glo reagent/DMEM mixture (1:1 mix of CellTiter-Glo reagent and serum-supplemented DMEM). After incubation for 10 min, the luminescence (proportional to the number of living cells) was measured with an ELISA plate reader to determine the cell viability.
# [2] = system: 4T1 R4 cells; experiment: Cell viability assay, 4T1 R4 cells; assay type: cell-based, mouse
# Experimental: as §1, §2
# [3] = system: 4T1 R8 cells; experiment: Cell viability assay, 4T1 R8 cells; assay type: cell-based, mouse
# Experimental: as §1, §2
# [4] = system: MDA-MB-231 R; experiment: Cell viability assay, chemoresistant MDA-MB-231 R cells; assay type: cell-based; details: MDA-MB-231 R versus S cells, 72 hr paclitaxel
# Experimental: as §2
# (§3) The expression levels of KIF2A, KIF2B, and KIF2C in these cell lines were compared using Western blotting.
# [5] = system: 4T1 R cells; experiment: Cell viability assay, chemoresistant 4T1 R cells; assay type: cell-based, mouse; details: 4T1 R versus S cells, 72 hr paclitaxel
# Experimental: as §2, §3
# [6] = system: HeLa cells expressing H2B-mCherry and eGFP-tubulin; experiment: Live-cell imaging of intracellular microtubule distribution; assay type: cell-based
# Experimental: For the microtubule distribution analysis, HeLa cell line stably expressing H2B-mCherry and eGFP-tubulin (a kind gift from Anthony A. Hyman, Max-Planck-Institute for Molecular Cell Biology and Genetics, Dresden, Germany) were treated with KIF2C inhibitors (10 μM DHTP or 10 μM 7S9) during imaging. Live-cell imaging was conducted on a Nikon T1 inverted fluorescence microscope (Nikon) with a 60× oil objective (Nikon), a Prime camera (Photometrics), and 37° C., 5% CO2 heat stage (Live Cell Instrument). Microtubule morphological changes were imaged at 3-min intervals. Images were obtained using ImageJ software processed with Gaussian Blur to remove the noise.
# [7] = system: 4T1 S1 cells; experiment: Colony formation assay, 4T1 S1 cells; assay type: cell-based, mouse; details: 400 nM paclitaxel
# Experimental: To assess the long-term survival of breast cancer cell lines following the treatment of KIF2C knockdown or inhibition, the cells trypsinized into single-cell suspension were homogeneously seeded in 6-well cell culture plates at a density of 5000 cells per dish, supplemented with 2× complete medium (50% 4×DMEM, 20% FBS, 2% penicillin-streptomycin, ddH2O, and 2× glutaMAX™), agarose (0.6% for bottom agar layer; 0.3% for top cell layer), ddH2O, and DMEM. After incubation for 24 hr, cells were treated with indicated drugs, such as DMSO, KIF2C inhibitors, or chemotherapy drugs, and then cultured at 37° C. incubator in an atmosphere of humidified air with 5% CO2 for a further 14-30 days. When the cell colonies grew to appropriate sizes, the culture mediums were replaced with PBS for washing. After that, the plates were stained with 10% crystal violet and analyzed using Image J.
# [8] = system: 4T1 S1 cells; experiment: Time-lapse imaging of mitotic progression, 4T1 S1 cells; assay type: cell-based, mouse; details: paclitaxel (400 nM, FIG. 6D)
# Experimental: To investigate the role of KIF2C in cell cycle progression, 4T1 cells were cultured in the 4-well chamber slide with about 50% confluence. The culture medium was replaced with a CO2-independent medium (Gibco) supplemented with 10% fetal bovine serum (Biological Industries) and 1% penicillin-streptomycin (Biowest). Then, each well of the chamber slide was treated with indicated drugs, such as DMSO, KIF2C inhibitors, or chemotherapy drugs. After that, the chamber slide was maintained in the microscope stage incubator with the supplement of humidified air with 5% CO2 at 37° C. Multiple-positional time-lapse imaging was performed using an automated Leica DM16000 inverted microscope equipped with HCX PL FL 20×/0.4 and EMCCD camera (Andor Luca R, Belfast, UK). Sequential differential interference contrast (DIC) images of cells obtained at indicated intervals were further analyzed using Metamorph software (Molecular Devices).
# [9] = system: 4T1 cells; experiment: In vivo tumor growth inhibition, 4T1 syngeneic model; parameters: species or system mouse; details: 4T1 tumors, BALB/c mice, paclitaxel 5 mg/kg intraperitoneally, 5on/2off two cycles
# Experimental: (§4) The mice were housed at the National Health Research Institute (NHRI) Animal Center in accordance with the Institutional Animal Care and Use Committee procedures and guidelines. The 4T1-derived cells, including 4T1, 4T1 R4, and 4T1 R8, used for implantation were harvested during log phase growth and resuspended in phosphate-buffered saline. Each mouse was injected s.c. in the right flank with 5×10^5 cells. After tumor size reached 60-100 mm 3 (D1), mice were divided into groups and received treatment with vehicle or different compounds alone or in combinations. Tumor size, in mm 3, was measured twice per week and calculated from Tumor volume=(w 2×1)/2, where w=width and 1=length in mm of the tumor. The values of tumor size were expressed as mean±SEM.
# [10] = system: 4T1 R4; experiment: In vivo tumor growth inhibition, 4T1 R4 syngeneic model; parameters: species or system mouse; details: R4 tumors, BALB/c mice, paclitaxel 15 mg/kg intraperitoneally, 5on/2off two cycles
# Experimental: as §4
# [11] = biological target: T1, KIF2C (Homo sapiens, UniProt Q99661); experiment: In vitro validation: KIF2C kinesin activity, malachite green-based phosphate colorimetric assay; assay type: biochemical
# T1 construct: KIF2C (216-598 a.a.); 6xHis (C); made in house; host or cells: E. coli BL21 (DE3), pET-28a
# T1 sequence (Q99661 216-598): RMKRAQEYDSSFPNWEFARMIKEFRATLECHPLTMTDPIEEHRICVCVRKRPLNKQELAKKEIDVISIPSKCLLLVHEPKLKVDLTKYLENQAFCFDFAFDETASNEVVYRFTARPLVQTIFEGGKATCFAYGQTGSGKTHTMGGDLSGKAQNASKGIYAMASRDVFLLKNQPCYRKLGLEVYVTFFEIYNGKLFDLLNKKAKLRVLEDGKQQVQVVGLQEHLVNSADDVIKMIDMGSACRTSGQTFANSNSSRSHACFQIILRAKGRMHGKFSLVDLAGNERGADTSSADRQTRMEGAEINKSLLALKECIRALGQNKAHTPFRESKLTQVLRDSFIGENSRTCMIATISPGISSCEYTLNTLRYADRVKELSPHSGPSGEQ
# Summary of the method: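 KIF2C sN+M construct (aa 216-598, C-terminal 6×His, E. coli-expressed) ATPase activity with microtubules from porcine brain tubulin or HEK293 (293Fs) cells in BRB80 (80 mM PIPES pH 6.8, 1 mM GTP, 10% DMSO), 37° C for 2 hr. Released phosphate detected by malachite green reagent, 10 min, A650.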
# [12] = system: MDA-MB-231 cells; experiment: Cell validation: cytotoxicity in MDA-MB-231 cells (CellTiter-Glo); assay type: cell-based
# Summary of the method: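 MDA-MB-231 cells were seeded at 2000 cells/well and exposed to compounds for the specified number of days. Medium was then replaced with a 1:1 CellTiter-Glo reagent/serum-supplemented DMEM mix for 10 min, and viability was read as luminescence, proportional to living cell number.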
# [13] = system: MDA-MB-231 R, MDA-MB-231 S, 4T1 S1, R4, and R8 cells; experiment: Cell viability of indicated cell lines, DHTP or 7S9 for 72 hr; assay type: cell-based; details: MDA-MB-231 R
# Experimental: as §2
# [14] = biological target: T2, KIF2A (Homo sapiens, UniProt O00139); experiment: In vitro kinesin assay, KIF2A; assay type: biochemical; details: 50 μM (FIG. 4I)
# T2 construct: KIF2A (181-562 a.a.); 6xHis (C); made in house; host or cells: E. coli BL21 (DE3), pET-28a
# T2 sequence (O00139 181-562): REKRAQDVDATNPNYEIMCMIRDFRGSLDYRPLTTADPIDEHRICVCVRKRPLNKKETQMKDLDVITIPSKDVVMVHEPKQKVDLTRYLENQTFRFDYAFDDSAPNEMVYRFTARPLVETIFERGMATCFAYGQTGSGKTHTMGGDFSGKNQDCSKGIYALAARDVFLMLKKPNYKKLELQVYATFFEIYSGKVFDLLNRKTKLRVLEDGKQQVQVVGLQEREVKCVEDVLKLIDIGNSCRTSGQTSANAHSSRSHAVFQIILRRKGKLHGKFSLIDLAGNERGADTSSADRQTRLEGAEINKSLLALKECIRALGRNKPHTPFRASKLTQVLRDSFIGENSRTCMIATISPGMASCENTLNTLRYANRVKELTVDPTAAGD
# Experimental: (§5) In vitro kinesin activity was measured using malachite green-based phosphate colorimetric assay (BioVision). […] The microtubules from porcine brain tubulin (Cytoskeleton) or purified from HEK293 cells in Free-style medium (293Fs) were dissolved in the BRB80 buffer (80 mM PIPES pH 6.8, 1 mM EGTA, 1 mM MgCl2, 1 mM GTP, 1 mM DTT, and 10% DMSO) at 37° C. for 2 hr. Phosphates released from kinesin-mediated ATP hydrolysis was measured by adding 30 μL of the phosphate colorimetric reagent (BioVision), incubated for 10 min, and then measured with absorbance at 650 nm.
# (§6) Constructs of sN+M regions of KIF2C (216-598 a.a.), KIF2A (181-562 a.a.) and KIF2B (171-553 a.a.) with C-terminal 6×His tag were subcloned into pET-28a vector and expressed in BL21 (DE3) E. coli cells (Novartis) cultured in Luria-Bertani medium supplemented with 50 ug/mL kanamycin at 37° C. After induction with 0.8 mM IPTG for 18 hr at 20° C., the cells were pelleted by centrifugation at 6000 rpm for 30 min at 10° C. The collected pellets were resuspended in 30 mL of buffer A (20 mM Tris-HCl pH 7.5, 500 mM NaCl, 10 mM imidazole, 1% CHAPS, and 1 mM PMSF) and next subjected to a high-pressure homogenizer (EmulsiFlex-C3) for cell lysis. After removing the cell debris by centrifugation at 13000 rpm for 30 min at 10° C., the recombinant Kinesin-13 in the supernatant was purified using nickel affinity chromatography. […]
# [15] = biological target: T3, KIF2B (Homo sapiens, UniProt Q8N4N8); experiment: In vitro kinesin assay, KIF2B; assay type: biochemical; details: 50 μM (FIG. 4I)
# T3 construct: KIF2B (171-553 a.a.); 6xHis (C); made in house; host or cells: E. coli BL21 (DE3), pET-28a
# T3 sequence (Q8N4N8 171-553): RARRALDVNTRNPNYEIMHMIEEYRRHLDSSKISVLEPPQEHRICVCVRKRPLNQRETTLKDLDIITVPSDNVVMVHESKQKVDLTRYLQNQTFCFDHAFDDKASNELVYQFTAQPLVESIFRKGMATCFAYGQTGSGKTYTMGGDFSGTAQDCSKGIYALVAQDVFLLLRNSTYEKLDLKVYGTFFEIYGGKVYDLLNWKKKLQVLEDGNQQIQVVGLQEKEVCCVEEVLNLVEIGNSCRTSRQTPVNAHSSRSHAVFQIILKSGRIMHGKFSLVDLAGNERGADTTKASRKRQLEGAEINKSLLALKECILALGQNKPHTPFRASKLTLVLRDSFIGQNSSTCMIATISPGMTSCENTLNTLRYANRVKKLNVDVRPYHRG
# Experimental: as §5, §6
# [16] = system: 4T1 cells; experiment: Flow cytometry analysis of cell membrane penetration ability; assay type: cell-based, mouse; details: 2 hr of drug treatment
# Experimental: To quantify the cell membrane penetration ability of different DHTP analogs, 4T1 cells were collected by trypsin after 2 hr of drug treatment and then transferred into microcentrifuge tubes. 4T1 cells were then resuspended into the FACS buffer (1% FBS, 2 mM EDTA, and 0.05% NaN3 in PBS). After two times of FACS buffer rinsing, these samples were detected by flow cytometry (Cyto FLEX™ FLOW Cytometer). The KO525 (405 nm laser; 525 nm filter) channel was used to detect DHTP and 7S9.
# [17] = 72 hr, MTA with 2 μM 7S9, read-out: IC50 (nM), Combination
# [18] = Mus musculus, 72 hr, drug alone, read-out: IC50 (nM), Single
# [19] = Mus musculus, read-out: Paclitaxel IC50 (nM), C4 combination, with 10 μM C4
smiles,measurement,setting,value
"CC(=O)O[C@H]1C(=O)[C@@]2(C)[C@H]([C@H](OC(=O)c3ccccc3)[C@]3(O)C[C@H](OC(=O)[C@H](O)[C@@H](NC(=O)c4ccccc4)c4ccccc4)C(C)=C1C3(C)C)[C@]1(OC(C)=O)CO[C@@H]1C[C@@H]2O [Paclitaxel, paclitaxel]",IC50,[1],62 nM
same,IC50,[2]; [17],6.4 nM
same,IC50,[2]; [18],1540 nM
same,IC50,[2]; [19],217 nM
same,IC50,[3]; [17],6.1 nM
same,IC50,[3]; [18],1120 nM
same,IC50,[3]; [19],157 nM
same,increase in chemoresistance,[4],2.5 fold
same,increase in chemoresistance,[5],11.8 fold
same,intracellular microtubule distribution phenotype (in words),[6],significant accumulation of bundled microtubules at the cell periphery
same,suppression of colony formation,[7],80%
same,cells died in mitosis,[8],Approximately 40%
same,tumor growth inhibition,[9],31.3%
same,tumor growth inhibition,[10],41.7%
"CC1=C(C(=O)OC(C)C)C(c2ccc(Cl)cc2)n2c(s/c(=C\c3ccc(OCC(=O)O)cc3)c2=O)=N1 (stereo not drawn) [1S0 (1), reference compound]",inhibitory effect against KIF2C (in words),[11]; 50 μM (FIG. 4I),inhibited all three members of the kinesin-13 family
same,inhibition of KIF2C kinesin activity (in words),[11]; 100 μM (FIG. 4B),could inhibit KIF2C kinesin activity
same,EC50,[11]; concentration that inhibits 50% of KIF2C activity,< 10000 nM
same,cytotoxicity on MDA-MB-231 cells (in words),[12]; 72 hr,not cytotoxic
same,IC50,"[12]; Homo sapiens, cytotoxicity in MDA-MB-231 cells",> 50000 nM
same,cytotoxicity (in words),[13],not cytotoxic
same,inhibitory effect against KIF2A (in words),[14],inhibited all three members of the kinesin-13 family
same,inhibitory effect against KIF2B (in words),[15],inhibited all three members of the kinesin-13 family
same,"cell penetration, fluorescence signal at 510 nm emission (in words)",[16],no fluorescence signals
same,intracellular microtubule distribution phenotype (in words),[6],tubulin aggregation phenotype was not detected
